In patent publication US11071743B1, “Effective, non-toxic treatments for brain cancer” (priority 2015, dated 2021):

How the values were obtained:
glioblastoma multiforme = experiment: Example Two: treatment of a patient; assay type: in vivo, human; conditions: dose escalated to 22 mg/kg
Method: A person living in Argentina was diagnosed with glioblastoma multiforme in January of 2014 and was immediately treated with surgery, chemotherapy, and radiation.
Shortly thereafter, near the middle of October, the patient began receiving the following regimen, alfacalcidol not being available: valganciclovir, 450 mg twice a day melatonin, 12 mg twice a day
BHT, 700 mg in the morning plus 350 mg at night resveratrol, 175 mg twice a day lycopene, 15 mg once a day
Honokiol, 250 mg twice a day metformin, 500 mg once a day, and vitamin D3, 2800 IU at night.
About two weeks later, bio-absorbable curcumin (from the Life Extension Foundation, described above), 400 mg twice a day, was added to the regimen, and circa November 4th, alfacalcidol was added to the regimen (3 micrograms in the morning).
The supply of alfacalcidol ran out at about that time. At the same time, sugar and other carbohydrate intake was restricted. In February, the dexamethasone dose was cut to 1 and 2 mg in the morning and evening, respectively. […] Alfacalcidol was resumed in April, at a double dose (3 micrograms twice a day) to compensate in part for the previous lapse, at which time the dexamethasone dose was cut to 1 mg twice a day. The tumor continued to show no progression in May, and the alfacalcidol dose was reduced to 2 micrograms twice a day in June, when the metformin dose was raised to […] in the morning. […]

glioblastoma = conditions: in lab dishes; cited from earlier work
[1] = normal brains; cited from earlier work
[2] = tested on: lipid-encapsulated viruses; conditions: in vitro; cited from earlier work

Structure (SMILES): O=C(O)C(Cl)Cl [DCA, dichloroacetate]
- side effect of DCA (glioblastoma multiforme): numbness was experienced

Structure (SMILES): Oc1ccc(C=Cc2cc(O)cc(O)c2)cc1 [Resveratrol]
- anti-glioblastoma effects (glioblastoma): powerful anti-glioblastoma effects
- blood-brain barrier penetration [1]: poorly if at all

Structure (SMILES): Cc1cc(C(C)(C)C)c(O)c(C(C)(C)C)c1 [BHT, butylated hydroxytoluene]
- killing of lipid-encapsulated viruses [2]: kill lipid-encapsulated viruses
